Measured values reported in patent US20090274577A1, “STE[…] TREATMENT WITH REDUCTANT AND OXIDANT” (priority 2008, published 2009).

Test system: Bacillus atrophaeus spores
Assay: Filtering test: spores incubated in test solution, filtered, filter half treated with ozone, colonies counted
Type: cell-based
Source text: Bacterial spores: Stainless steel discs with Bacillus atrophaeus spores (log 6, cat #1-6100ST, Raven Biological Laboratories).
An ozone generator provided ˜350 ppm O3, and a flow rate of ˜25 l/min, using setting No. 1.
Commercially available sterile single filters (pore size 0.45 μm) and an analytical test filter funnel from Nalgene was used (F-2161, Sigma-Aldrich). For suction, a Rietschle Thomas DTF 6 vacuum pump was used, with a flow rate of ˜6 m3/h, providing a vacuum of ˜150 mbar abs.
Filtering test: In filtering test experiments the spore solutions were prepared in a volume of 1 ml and processed. Thereto, after an incubation period of 5 min in the appropriate buffer at 40° C. using a rotary shaker, an aliquot of 250 μl of the suspension was transferred onto a sterile single use filters. The filter was washed two times with 10 ml of sterile water. The filter was retrieved under sterile conditions, and the filter was cut into halves using a sterile scissor. Only one half of the filter was treated with ozone, while the other half was kept as control, i.e. without ozone treatment. Finally, both halves were placed onto a TSA plate and incubated at 30° C. Initially Nutrient Agar plates were used, but later on a switch was made to TSA plates, in order to utilize the more pronounced reddish colour of Bacillus atrophaeus colonies which was facilitating analysis and documentation. […]

SMILES: OC(CS)C(O)CS (racemic) [DTT, DL-dithiotreitol]
- reduction of viability of Bacillus atrophaeus (liquid media comprising reductant, then sterile air with ~350 ppm ozone for 5 or 10 min): 3-5 logs
- sterilizing/disinfecting/killing effect (in words) (test solution followed by ~350 ppm ozone, 5 or 10 min): improved
